Source: patent US20250186433A1, “ACSS2 INHIBITORS AND METHODS OF USE THEREOF” (EpiVario, Inc., priority 2017, published 2025)

Legend:
ACSF2 = biological target: T1, ACSF2 (Homo sapiens, UniProt Q96CM8); test: Acyl-CoA synthetases selectivity panel: ACSF2; format: biochemical; conditions: human recombinant protein, substrate octanoate, AMP readout by HPLC; read-out: HPLC based activity assays IC50 (UM) ACSF2
T1 construct: purchased Cusabio, China
T1 sequence (Q96CM8 42-615): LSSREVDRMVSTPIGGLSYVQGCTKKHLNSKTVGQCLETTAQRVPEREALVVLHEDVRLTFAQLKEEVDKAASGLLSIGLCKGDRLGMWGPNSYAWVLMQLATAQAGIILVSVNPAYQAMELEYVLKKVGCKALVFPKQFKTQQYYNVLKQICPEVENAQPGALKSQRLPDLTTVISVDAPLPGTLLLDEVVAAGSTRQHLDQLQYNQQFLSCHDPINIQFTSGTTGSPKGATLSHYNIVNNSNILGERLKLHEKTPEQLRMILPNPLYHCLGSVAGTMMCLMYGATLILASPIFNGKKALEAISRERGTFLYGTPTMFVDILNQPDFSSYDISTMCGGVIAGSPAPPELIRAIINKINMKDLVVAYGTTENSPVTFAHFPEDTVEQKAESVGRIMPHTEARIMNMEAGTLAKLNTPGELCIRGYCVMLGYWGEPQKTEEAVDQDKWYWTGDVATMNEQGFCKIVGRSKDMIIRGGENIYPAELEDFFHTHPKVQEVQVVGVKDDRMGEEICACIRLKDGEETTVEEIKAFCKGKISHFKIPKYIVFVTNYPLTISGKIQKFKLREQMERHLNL
From the text: (§1) The biochemical assays for testing the selectivity of the compounds according to this invention, were done using human recombinant proteins (Cusabio, China). The readout of the assays was AMP levels, the […] of the reactions, by HPLC method. The acyl substrates (Sigma-Aldrich) of the assays were as followed: ACSS1/ACSS2—Acetate, AACS-Acetoacetyl, ACSF2—Octanoate and ACSL5—Palmitate. The protein in this panel include ACSS1, the closest homolog of ACSS2, in addition to representative short/medium/long chain acyl-CoA syntatases.

ACSS2 = ACSS2 (Homo sapiens, UniProt Q9NR19); test: Acyl-CoA synthetases selectivity panel: ACSS2; format: biochemical; parameters: purchased Cusabio, China; conditions: human recombinant protein, substrate acetate, AMP readout by HPLC; read-out: HPLC based activity assays IC50 (UM) ACSS2
ACSS2, sequence (Q9NR19 whole entry): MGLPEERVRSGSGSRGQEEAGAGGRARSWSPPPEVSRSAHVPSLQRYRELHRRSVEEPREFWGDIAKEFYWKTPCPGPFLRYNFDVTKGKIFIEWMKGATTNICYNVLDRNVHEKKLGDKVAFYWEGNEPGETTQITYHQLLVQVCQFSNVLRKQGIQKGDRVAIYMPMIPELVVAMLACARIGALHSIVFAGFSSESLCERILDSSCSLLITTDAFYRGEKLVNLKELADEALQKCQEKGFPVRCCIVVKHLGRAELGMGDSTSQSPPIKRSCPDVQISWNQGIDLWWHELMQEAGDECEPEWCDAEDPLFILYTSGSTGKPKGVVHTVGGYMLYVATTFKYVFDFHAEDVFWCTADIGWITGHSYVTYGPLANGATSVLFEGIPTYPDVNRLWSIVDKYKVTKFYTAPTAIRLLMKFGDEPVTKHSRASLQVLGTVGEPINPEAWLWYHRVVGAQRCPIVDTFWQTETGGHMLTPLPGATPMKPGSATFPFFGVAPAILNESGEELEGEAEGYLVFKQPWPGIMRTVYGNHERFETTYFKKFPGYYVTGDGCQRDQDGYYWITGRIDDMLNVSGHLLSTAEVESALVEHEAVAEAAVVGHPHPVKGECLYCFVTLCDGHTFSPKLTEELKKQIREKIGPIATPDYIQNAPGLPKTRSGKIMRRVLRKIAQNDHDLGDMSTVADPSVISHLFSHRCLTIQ
From the text: as §1

What does the source list for `COC(=O)c1cccc(N2N=C(C)C(C(=O)Nc3cccc(C(C)(F)F)c3)C2=O)c1` (centres unmarked) [compound 261, methyl 3-(4-((3-(1,1-difluoroethyl)phenyl)carbamoyl)-3-methyl-5-oxo-4,5-dihydro-1H-pyrazol-1-yl)benzoate]?
IC50 (ACSF2): 46 µM; IC50 (ACSS2): < 0.001 µM
